From article PMC9521027 (ACS Omega, 2022)
Positions count from the first letter of the chain named. Names may count otherwise. “And” between values parts separate entries of the source, which are not always exact repeats. Equal entries are not always repeated.

How the values were obtained:
URAT1 K393R mutant [1] = target: T1, URAT1 K393R mutant (Homo sapiens, UniProt Q96S37, K393R); test: 14C-uric acid binding assay with membrane protein; conditions: 1 μM BM, 1 μM verinurad, 10 μM lesinurad, 20 μM probenecid, 30 min, 25 μM 14C-uric acid
T1 sequence (Q96S37 1-553 K393R): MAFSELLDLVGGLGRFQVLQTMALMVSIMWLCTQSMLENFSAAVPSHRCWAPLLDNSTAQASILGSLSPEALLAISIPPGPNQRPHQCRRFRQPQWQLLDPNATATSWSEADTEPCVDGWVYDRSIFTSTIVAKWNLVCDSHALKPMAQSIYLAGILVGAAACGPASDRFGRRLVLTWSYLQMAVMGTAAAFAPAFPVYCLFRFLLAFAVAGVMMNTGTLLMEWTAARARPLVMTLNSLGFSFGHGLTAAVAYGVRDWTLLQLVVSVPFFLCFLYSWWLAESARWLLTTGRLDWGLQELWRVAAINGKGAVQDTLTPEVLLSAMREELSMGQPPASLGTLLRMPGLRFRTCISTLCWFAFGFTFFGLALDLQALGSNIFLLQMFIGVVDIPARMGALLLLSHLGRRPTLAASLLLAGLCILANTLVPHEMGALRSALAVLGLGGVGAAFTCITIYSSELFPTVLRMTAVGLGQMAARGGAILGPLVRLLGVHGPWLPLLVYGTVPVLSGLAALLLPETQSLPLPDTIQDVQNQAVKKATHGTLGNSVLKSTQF

URAT1 K393H mutant [2] = target: T2, URAT1 K393H mutant (Homo sapiens, UniProt Q96S37, K393H); test: 14C-uric acid binding assay with membrane protein; conditions: 1 μM BM, 1 μM verinurad, 10 μM lesinurad, 20 μM probenecid, 30 min, 25 μM 14C-uric acid
T2 sequence (Q96S37 1-553 K393H): T1 sequence (Q96S37 1-553 K393R) with R393H

URAT1 K393D mutant = target: T3, URAT1 K393D mutant (Homo sapiens, UniProt Q96S37, K393D); test: 14C-uric acid uptake assay in transfected HEK293 cells; assay type: cell-based
T3 sequence (Q96S37 1-553 K393D): T1 sequence (Q96S37 1-553 K393R) with R393D

wild-type hURAT1 = target: T4, wild-type hURAT1 (Homo sapiens, UniProt Q96S37); test: cell-based
T4 sequence (Q96S37 1-553): T1 sequence (Q96S37 1-553 K393R) with R393K

URAT1 K393H mutant [3] = target: T2, URAT1 K393H mutant; test: 14C-uric acid uptake assay in transfected HEK293 cells; assay type: cell-based
URAT1 K393E mutant = target: T5, URAT1 K393E mutant (Homo sapiens, UniProt Q96S37, K393E); test: as above; assay type: cell-based
T5 sequence (Q96S37 1-553 K393E): T1 sequence (Q96S37 1-553 K393R) with R393E

URAT1 K393R mutant [4] = target: T1, URAT1 K393R mutant; test: as above; assay type: cell-based
URAT1 K393A mutant = target: T6, URAT1 K393A mutant (Homo sapiens, UniProt Q96S37, K393A); test: as above; assay type: cell-based
T6 sequence (Q96S37 1-553 K393A): T1 sequence (Q96S37 1-553 K393R) with R393A

[5] = substrate: O=c1[nH]c(=O)c2[nH]c(=O)[nH]c2[nH]1; test: Saturation kinetic experiment of 14C-uric acid uptake; assay type: cell-based, human; conditions: 10–200 μM 14C-uric acid, 20 min, HEK293, n = 3

CCc1oc2ccccc2c1C(=O)c1cc(Br)c(O)c(Br)c1 [BM, benzbromarone]
Effect of inhibitor on 14C-uric acid binding compared with WT group (URAT1 K393R mutant [1]): poorly interfered | Effect of inhibitor on 14C-uric acid binding compared with WT group (URAT1 K393H mutant [2]): poorly interfered

O=C(O)CSc1nnc(Br)n1-c1ccc(C2CC2)c2ccccc12 [lesinurad]
Effect of inhibitor on 14C-uric acid binding compared with WT group (URAT1 K393R mutant [1]): similar | Effect of inhibitor on 14C-uric acid binding compared with WT group (URAT1 K393H mutant [2]): similar

CCCN(CCC)S(=O)(=O)c1ccc(C(=O)O)cc1 [probenecid]
Effect of inhibitor on 14C-uric acid binding compared with WT group (URAT1 K393R mutant [1]): similar | Effect of inhibitor on 14C-uric acid binding compared with WT group (URAT1 K393H mutant [2]): similar

CC(C)(Sc1ccncc1-c1ccc(C#N)c2ccccc12)C(=O)O [verinurad]
Effect of inhibitor on 14C-uric acid binding compared with WT group (URAT1 K393R mutant [1]): similar | IC50 (URAT1 K393D mutant): 440 ± 210 nM | Effect of inhibitor on 14C-uric acid binding compared with WT group (URAT1 K393H mutant [2]): similar | IC50 (wild-type hURAT1): 290 ± 120 nM | IC50 (URAT1 K393H mutant [3]): 490 ± 240 nM | IC50 (URAT1 K393E mutant): 360 ± 220 nM | IC50 (URAT1 K393R mutant [4]): 310 ± 290 nM | IC50 (URAT1 K393A mutant): 420 ± 260 nM

B1: hURAT1 K393R mutant (Homo sapiens; K393R) (protein)
chain: T1 sequence (Q96S37 1-553 K393R)
Km ([5]; other: K393R): 128.11 μM and 101.23 ± 26.11 (ns) μM | Vmax ([5]; other: K393R): 557.21 ± 89.21(ns)

B2: hURAT1 K393A mutant (Homo sapiens; K393A) (protein)
chain: T1 sequence (Q96S37 1-553 K393R) with R393A
Km ([5]; other: K393A): 172.12 ± 27.12 µM | Vmax ([5]; other: K393A): 0.000464 µmol/min/mg

B3: hURAT1 K393H mutant (Homo sapiens; K393H) (protein)
chain: T1 sequence (Q96S37 1-553 K393R) with R393H
Km ([5]; other: K393H): 101.23 μM and 128.11 ± 19.12 (ns) μM | Vmax ([5]; other: K393H): 0.000447 µmol/min/mg

B4: hURAT1 K393E mutant (Homo sapiens; K393E) (protein)
chain: T1 sequence (Q96S37 1-553 K393R) with R393E
Km ([5]; other: K393E): 201.23 ± 23.65 µM | Vmax ([5]; other: K393E): 0.000424 µmol/min/mg

B5: hURAT1 K393D mutant (Homo sapiens; K393D) (protein)
chain: T1 sequence (Q96S37 1-553 K393R) with R393D
Km ([5]; other: K393D): 165.36 ± 23.41 µM | Vmax ([5]; other: K393D): 0.000497 µmol/min/mg

B6: hURAT1 WT (Homo sapiens) (protein)
chain: T1 sequence (Q96S37 1-553 K393R) with R393K
Km ([5]; other: WT): 106.45 ± 16.45 µM | Vmax ([5]; other: WT): 0.000654 µmol/min/mg
